Measured values taken from patent publication US11279703B2, “Fused pyrimidine compounds as BRD4 and JAK2 dual inhibitors and methods for use thereof” (APTOSE BIOSCIENCES INC., priority 2016, dated 2022).

What was measured:
BRD4-BD2 = BRD4-BD2 (Homo sapiens (Human), UniProt O60885); experiment: AlphaLisa bromodomain binding assay, BRD4-BD2; conditions: Table 6; read-out: BRD4(2) IC50
From the text: (§1) An AlphaLisa assay was used to observe bromodomain binding and measure IC50s for the compounds disclosed herein. An AlphaLisa assay is a bead-based assay used to detect interactions between bromodomains and polyacetylated histone peptides. Donor and acceptor beads bound to target and ligand are brought into proximity by this protein-protein interaction.
(§2) Equipment Required • 1. […] Plate centrifuge • 3. Plate shaker • 4. […] Single channel and multi-channel pipettes • 6. Microplate reader (Pherastar)
(§3) Stock and Final Assay Concentrations (FAC) • 1. All reference and test compounds are made at a concentration of 10 mM in DMSO. Compounds are serially diluted in DMSO and a FAC starting from 10 μM to 10 point 3 fold serial dilutions is arrived. FAC of DMSO is 1%. • 2. Enzyme stock and FAC
(§4) Biotinylated substrate (Acetylated histone H4, biotinylated substrate—cat no. AS64989-025, Anaspec) stock and FAC
(§5) • 4. Acceptor and donor beads stock and FAC
(§6) Buffers • For the enzyme and substrate dilution following buffer is used (for 50 ml) • HEPES: 50 mM 2.5 ml • NaCl: 25 mM 1.25 ml • DTT: 10 mM 0.05 ml • BSA: 0.1% 0.05 g • MilliQ water: 45.7 ml • For dilution of acceptor and donor beads AlphaLISA 5× epigenetics Buffer Perkin Elmer (Cat: AL008C) is used at 1× concentration.
(§7) Procedure • 1. […] Tap the plate gently • 3. […] Cover with plate sealer • 5. […] Incubate the plate at room temperature for 10 minutes • 7. Add 10 μl of the substrate • 8. Cover with plate sealer • 9. […] Cover with plate sealer • 14. […] Cover with plate sealer • 18.
(§8) The percent inhibition is calculated in the excel analysis template and the IC50 values are subsequently determined using a sigmoidal dose-response curve (variable slope) using GraphPad Prism® 5 software.

JAK1 = JAK1 (Homo sapiens (Human), UniProt P23458); experiment: HTRF kinase assay, JAK1; format: biochemical; conditions: Table 6
From the text: (§9) A kinase assay with HTRF was used to observe JAK activity and calculate the IC50s of compounds disclosed herein. HTRF is an enzymatic assay used to determine the amount of phosphorylated peptide. FRET (Fluorescence Resonance Energy Transfer) is based on the transfer of energy between two fluorophores—a donor and an acceptor—when in close proximity. Molecular interactions between biomolecules can be assessed by coupling each partner with a fluorescent label and by detecting the level of energy transfer. The amount of phopshorylated peptide can be detected using a combination of a Eu 3+Cryptate labeled anti-phospho residue antibody, SA-XL665 and a biotinylated substrate. The signal is proportional to the concentration of phospho-residues.
(§10) Equipment Required • 1. […] Plate centrifuge • 3. Plate shaker • 4. […] Single channel and multi-channel pipettes • 6. Microplate reader (Pherastar)]
as §3, with “arrived. For Ruxolitinib the starting FAC is 1 μM.” for “arrived.”
(§11) • JAK-1: Invtirogen Cat: PR8767C • JAK-2: Invtirogen Cat: PR7820B • JAK-3: Invtirogen Cat: PR7507B • 3. Substrate (synthetic peptide-Biotinylated-N-terminal tag-[…] from Biopeptide) stock and FAC
(§12) • Adenosine 5′-triphosphate disodium salt hydrate: Sigma Cat: A26209 • 5. […] Buffers • Base buffer (for 50 ml)
(§13) • HTRF buffer: • 50 mM Tris-HCl, pH—7.5 • 100 mM NaCl • 0.1% BSA • 0.05% Tween20 • 0.5 mM EDTA
(§14) To a 384 well black-plate: • 1. Add 17 μL of the buffer to each well of the 384-well black plate • 2. […] Add 5 μl of the enzyme to each well of the plate • 4. Add 10 μl of the substrate and ATP mix to all the wells • 5. Cover with plate sealer • 6. […] Incubate at room temperature for 1 hour on shaker • 8. […] Add 37.5 μL of the HTRF mix to these wells. • 9. Incubate the plate at room temperature on shaker for 45 minutes. • 10.
as §8

BRDT-BD1 = BRDT-BD1 (Homo sapiens (Human), UniProt Q58F21); experiment: AlphaLisa bromodomain binding assay, BRDT-BD1; conditions: Table 6; read-out: BRDT(1) IC50
From the text: as §1, §2, §3, §4, §5, §6, §7, §8

BRD2-BD1 = BRD2-BD1 (Homo sapiens (Human), UniProt P25440); experiment: AlphaLisa bromodomain binding assay, BRD2-BD1; conditions: Table 6; read-out: BRD2(1) IC50
From the text: as §1, §2, §3, §4, §5, §6, §7, §8

JAK2 = JAK2 (Homo sapiens (Human), UniProt O60674); experiment: HTRF kinase assay, JAK2; format: biochemical; conditions: Table 6
JAK3 = JAK3 (Homo sapiens (Human), UniProt P52333); experiment: HTRF kinase assay, JAK3; format: biochemical; conditions: Table 6
From the text: as §9, §10
as §3, with “arrived. For Ruxolitinib the starting FAC is 1 μM.” for “arrived.”
as §11, §12, §13, §14, §8

BRD3-BD1 = BRD3-BD1 (Homo sapiens (Human), UniProt Q15059); experiment: AlphaLisa bromodomain binding assay, BRD3-BD1; conditions: Table 6; read-out: BRD3(1) IC50
From the text: as §1, §2, §3, §4, §5, §6, §7, §8

BRD4-BD1 = BRD4-BD1 (Homo sapiens (Human), UniProt O60885); experiment: AlphaLisa bromodomain binding assay, BRD4-BD1; conditions: Table 6; read-out: BRD4(1) IC50

JAK2, sequence (O60674 whole entry): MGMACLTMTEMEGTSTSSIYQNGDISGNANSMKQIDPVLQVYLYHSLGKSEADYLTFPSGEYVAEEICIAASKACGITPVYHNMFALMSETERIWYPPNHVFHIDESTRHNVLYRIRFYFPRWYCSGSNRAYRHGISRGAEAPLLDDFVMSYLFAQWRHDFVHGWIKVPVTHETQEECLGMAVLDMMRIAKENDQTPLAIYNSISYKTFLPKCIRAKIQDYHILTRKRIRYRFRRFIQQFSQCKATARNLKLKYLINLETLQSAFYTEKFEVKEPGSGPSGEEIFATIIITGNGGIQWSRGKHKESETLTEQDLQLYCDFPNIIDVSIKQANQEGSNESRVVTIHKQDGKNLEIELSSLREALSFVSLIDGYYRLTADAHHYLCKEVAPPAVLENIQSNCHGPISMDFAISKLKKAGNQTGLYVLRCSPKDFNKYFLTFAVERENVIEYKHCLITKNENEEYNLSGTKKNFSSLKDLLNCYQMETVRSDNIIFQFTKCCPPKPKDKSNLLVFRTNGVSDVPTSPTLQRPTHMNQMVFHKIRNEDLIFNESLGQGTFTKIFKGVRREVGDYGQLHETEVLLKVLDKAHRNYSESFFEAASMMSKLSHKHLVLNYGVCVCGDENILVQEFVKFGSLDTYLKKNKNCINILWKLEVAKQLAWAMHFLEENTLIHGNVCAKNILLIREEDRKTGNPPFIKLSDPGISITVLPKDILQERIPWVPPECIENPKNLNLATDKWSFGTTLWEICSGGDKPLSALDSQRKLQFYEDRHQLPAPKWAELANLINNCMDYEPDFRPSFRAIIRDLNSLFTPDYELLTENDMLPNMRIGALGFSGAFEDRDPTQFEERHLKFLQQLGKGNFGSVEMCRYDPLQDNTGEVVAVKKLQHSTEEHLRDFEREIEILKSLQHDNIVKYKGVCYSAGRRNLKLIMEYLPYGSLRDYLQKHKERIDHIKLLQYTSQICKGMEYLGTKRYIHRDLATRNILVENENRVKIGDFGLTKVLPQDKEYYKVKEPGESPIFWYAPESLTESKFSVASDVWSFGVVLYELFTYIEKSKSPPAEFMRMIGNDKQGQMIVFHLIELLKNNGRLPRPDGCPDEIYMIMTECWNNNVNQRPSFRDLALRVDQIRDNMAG
BRD2-BD1, sequence (P25440 74-180): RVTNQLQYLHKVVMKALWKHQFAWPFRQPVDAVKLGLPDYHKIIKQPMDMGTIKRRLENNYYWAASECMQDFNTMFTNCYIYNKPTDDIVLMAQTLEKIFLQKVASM
BRD3-BD1, sequence (Q15059 34-140): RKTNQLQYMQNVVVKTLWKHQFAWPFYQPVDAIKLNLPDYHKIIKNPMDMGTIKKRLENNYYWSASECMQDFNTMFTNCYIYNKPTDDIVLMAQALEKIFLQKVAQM
JAK1, sequence (P23458 whole entry): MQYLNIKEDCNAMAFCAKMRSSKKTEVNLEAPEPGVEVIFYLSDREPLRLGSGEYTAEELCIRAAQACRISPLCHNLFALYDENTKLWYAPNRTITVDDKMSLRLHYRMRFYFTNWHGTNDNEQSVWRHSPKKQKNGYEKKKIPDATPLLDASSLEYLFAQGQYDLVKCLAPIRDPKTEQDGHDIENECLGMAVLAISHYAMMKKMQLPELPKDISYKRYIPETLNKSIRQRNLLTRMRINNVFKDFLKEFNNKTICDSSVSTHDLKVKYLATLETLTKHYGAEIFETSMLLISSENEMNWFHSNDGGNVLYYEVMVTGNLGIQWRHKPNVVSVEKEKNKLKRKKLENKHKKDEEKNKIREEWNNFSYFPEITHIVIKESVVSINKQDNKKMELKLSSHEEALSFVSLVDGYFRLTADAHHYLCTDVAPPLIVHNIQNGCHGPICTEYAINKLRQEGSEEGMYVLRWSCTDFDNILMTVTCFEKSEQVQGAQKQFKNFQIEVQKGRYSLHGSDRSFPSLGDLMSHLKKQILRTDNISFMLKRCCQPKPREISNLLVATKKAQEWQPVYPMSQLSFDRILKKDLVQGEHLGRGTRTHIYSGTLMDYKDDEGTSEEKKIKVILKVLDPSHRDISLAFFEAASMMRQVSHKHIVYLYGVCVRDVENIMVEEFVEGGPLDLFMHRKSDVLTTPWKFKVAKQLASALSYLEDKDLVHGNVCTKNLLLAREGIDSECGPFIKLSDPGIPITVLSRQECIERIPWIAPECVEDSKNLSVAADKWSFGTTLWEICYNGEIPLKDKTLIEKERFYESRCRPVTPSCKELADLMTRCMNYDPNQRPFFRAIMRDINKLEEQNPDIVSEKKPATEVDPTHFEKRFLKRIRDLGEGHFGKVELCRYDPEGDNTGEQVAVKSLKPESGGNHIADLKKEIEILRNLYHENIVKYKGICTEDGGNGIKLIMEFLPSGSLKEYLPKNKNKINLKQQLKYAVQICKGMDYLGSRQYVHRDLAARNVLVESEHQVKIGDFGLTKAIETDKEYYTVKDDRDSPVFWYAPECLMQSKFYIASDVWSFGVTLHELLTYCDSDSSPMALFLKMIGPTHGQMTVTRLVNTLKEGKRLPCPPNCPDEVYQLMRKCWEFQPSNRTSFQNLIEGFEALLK
JAK3, sequence (P52333 whole entry): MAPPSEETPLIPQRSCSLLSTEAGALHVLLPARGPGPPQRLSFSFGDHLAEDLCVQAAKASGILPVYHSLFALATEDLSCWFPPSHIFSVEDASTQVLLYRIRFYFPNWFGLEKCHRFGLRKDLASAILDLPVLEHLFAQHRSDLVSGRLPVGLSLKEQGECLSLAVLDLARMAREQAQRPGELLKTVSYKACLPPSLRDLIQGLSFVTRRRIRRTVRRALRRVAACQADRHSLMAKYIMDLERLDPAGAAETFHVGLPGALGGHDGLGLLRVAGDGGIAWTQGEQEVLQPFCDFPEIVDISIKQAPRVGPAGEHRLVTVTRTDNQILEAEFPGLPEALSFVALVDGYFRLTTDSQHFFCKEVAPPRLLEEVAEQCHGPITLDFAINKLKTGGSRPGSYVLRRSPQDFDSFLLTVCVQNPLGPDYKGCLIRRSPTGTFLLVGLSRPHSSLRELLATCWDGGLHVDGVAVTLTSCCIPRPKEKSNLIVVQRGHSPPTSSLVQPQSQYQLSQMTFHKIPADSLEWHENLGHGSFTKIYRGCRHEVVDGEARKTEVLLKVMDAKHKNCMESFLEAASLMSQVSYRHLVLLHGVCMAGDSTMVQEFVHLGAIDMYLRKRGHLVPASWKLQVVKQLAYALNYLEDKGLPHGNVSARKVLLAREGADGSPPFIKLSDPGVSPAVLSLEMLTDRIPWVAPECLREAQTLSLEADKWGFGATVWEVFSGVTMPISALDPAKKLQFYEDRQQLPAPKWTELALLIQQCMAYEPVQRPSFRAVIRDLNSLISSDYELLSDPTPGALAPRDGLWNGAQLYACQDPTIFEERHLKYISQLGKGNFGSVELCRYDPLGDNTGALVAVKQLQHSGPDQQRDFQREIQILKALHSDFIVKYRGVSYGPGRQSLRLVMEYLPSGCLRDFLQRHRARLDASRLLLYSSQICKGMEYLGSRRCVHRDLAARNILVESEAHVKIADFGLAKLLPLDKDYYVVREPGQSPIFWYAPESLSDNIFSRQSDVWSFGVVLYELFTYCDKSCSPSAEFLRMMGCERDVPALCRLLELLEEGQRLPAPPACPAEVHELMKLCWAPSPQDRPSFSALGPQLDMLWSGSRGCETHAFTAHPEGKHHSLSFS

Row | SMILES | IC50 (BRD4-BD2) | IC50 (JAK1) | IC50 (BRDT-BD1) | IC50 (BRD2-BD1) | IC50 (JAK2) | IC50 (JAK3) | IC50 (BRD3-BD1) | IC50 (BRD4-BD1)
1 | COc1cc(Nc2ncc3ccn(-c4cccc(NS(=O)(=O)C(C)(C)C)c4)c3n2)ccc1N1CCNCC1 | 0.128 µM | 0.275 µM | 0.32 µM | 0.548 µM | 0.0028 µM | 0.112 µM | 0.142 µM | 0.402 µM
2 | CC(C)(C)S(=O)(=O)Nc1cccc(-c2csc3cnc(Nc4ccc(N5CCNCC5)c(F)c4)nc23)c1 | 0.193 µM | 0.169 µM | 0.308 µM | 0.506 µM | 0.002 µM | 0.061 µM | 0.181 µM | 0.295 µM
3 | CN(C)C1CCN(c2ccc(Nc3ncc4scc(-c5ccc(F)c(NS(=O)(=O)C(C)(C)C)c5)c4n3)cc2F)CC1 | 0.091 µM | 0.927 µM | 0.177 µM | 0.292 µM | 0.008 µM | 0.097 µM | 0.11 µM | 0.108 µM
4 | CN(C)C1CCN(c2ccc(Nc3ncc4scc(-c5ccc(F)c(NS(=O)(=O)C6(C)CC6)c5)c4n3)cc2F)CC1 | 0.203 µM | 0.734 µM | 0.329 µM | 0.605 µM | 0.011 µM | 0.06 µM | 0.196 µM | 0.233 µM
5 | CC(C)(C)S(=O)(=O)Nc1cccc(-c2csc3cnc(Nc4ccc5c(c4)CCN4CCNCC54)nc23)c1 (stereo not shown) | 0.131 µM | 0.044 µM | 0.281 µM | 0.489 µM | 0.002 µM | 0.018 µM | 0.1 µM | 0.109 µM
6 | CN1CCN(c2ccc(Nc3ncc4ccn(-c5cccc(NS(=O)(=O)C6CC6)c5)c4n3)cc2)CC1 [drawing 278] | 0.729 µM | 0.244 µM | 2.5 µM | 1.9 µM | 0.0025 µM | 0.069 µM | 0.825 µM | 0.355 µM
7 | CC(C)(C)S(=O)(=O)Nc1cccc(-n2ccc3cnc(Nc4ccc(N5CCNCC5)cc4)nc32)c1 [drawing 283] | 0.254 µM | 0.418 µM | 0.632 µM | 1.58 µM | 0.012 µM | 0.067 µM | 0.5 µM | 0.152 µM
8 | O=S(=O)(Nc1cccc(-n2ccc3cnc(Nc4ccc(N5CCNCC5)cc4)nc32)c1)C1CC1 [drawing 296] | 0.574 µM | 0.188 µM | 1.21 µM | 2.96 µM | 0.002 µM | 0.015 µM | 0.914 µM | 0.677 µM
9 | CN(C)C1CCN(c2ccc(Nc3ncc4ccn(-c5ccc(F)c(NS(=O)(=O)C(C)(C)C)c5)c4n3)cc2F)CC1 [drawing 366] | 0.088 µM | 2.1 µM | 0.14 µM | 0.231 µM | 0.027 µM | 0.193 µM | 0.049 µM | 0.063 µM
10 | CNC1CCN(c2ccc(Nc3ncc4ccn(-c5ccc(F)c(NS(=O)(=O)C(C)(C)C)c5)c4n3)cc2F)CC1 [drawing 456] | 0.086 µM | 1.5 µM | 0.185 µM | 0.36 µM | 0.039 µM | 0.173 µM | 0.097 µM | 0.123 µM
11 | CNC1CCN(c2ccc(Nc3ncc4scc(-c5ccc(F)c(NS(=O)(=O)C(C)(C)C)c5)c4n3)cc2F)CC1 [drawing 458] | 0.092 µM | 1.2 µM | 0.223 µM | 0.67 µM | 0.01 µM | 0.082 µM | 0.154 µM | 0.192 µM
12 | CC(C)(C)S(=O)(=O)Nc1cc(-n2ccc3cnc(Nc4cc(F)c5c(c4)CC4CNCCN54)nc32)ccc1F (stereo not shown) [drawing 465] | 0.12 µM | 10 µM | 0.292 µM | 0.353 µM | 0.061 µM | 0.285 µM | 0.083 µM | 0.115 µM

The remaining compounds from weak to strong by IC50 (BRD4-BD2), led by results:

Row | IC50 (BRD4-BD2) | IC50 (JAK1) | IC50 (BRDT-BD1) | IC50 (BRD2-BD1) | IC50 (JAK2) | IC50 (JAK3) | IC50 (BRD3-BD1) | IC50 (BRD4-BD1) | SMILES
13 | 0.085 µM | 3.7 µM | 0.185 µM | 0.235 µM | 0.04 µM | 0.206 µM | 0.081 µM | 0.079 µM | CC(C)(C)S(=O)(=O)Nc1cc(-n2ccc3cnc(Nc4cc(F)c5c(c4)CC4CNCCN54)nc32)ccc1F (stereo not shown) [drawing 443]
14 | 0.0675 µM | 0.972 µM | 0.182 µM | 0.49 µM | 0.035 µM | 0.105 µM | 0.109 µM | 0.128 µM | CN1CCN(c2ccc(Nc3ncc4ccn(-c5ccc(F)c(NS(=O)(=O)C(C)(C)C)c5)c4n3)cc2)CC1 [drawing 295]
15 | 0.067 µM | 0.178 µM | 0.268 µM | 0.576 µM | 0.05 µM | 0.253 µM | 0.117 µM | 0.205 µM | CNCCNC(=O)Cc1ccc(Nc2ncc3ccn(-c4cccc(NS(=O)(=O)C(C)(C)C)c4)c3n2)cc1
16 | 0.064 µM | 2.1 µM | 0.118 µM | 0.216 µM | 0.033 µM | 0.272 µM | 0.059 µM | 0.06 µM | CC(C)(C)S(=O)(=O)Nc1cc(-n2ccc3cnc(Nc4ccc(N5CCNCC5)c(F)c4)nc32)ccc1F [drawing 428]
17 | 0.062 µM | 0.4 µM | 0.406 µM | 0.632 µM | 0.0073 µM | 0.081 µM | 0.164 µM | 0.173 µM | CN(C)C1CCN(c2ccc(Nc3ncc4ccn(-c5cccc(NS(=O)(=O)C(C)(C)C)c5)c4n3)cc2)CC1 [drawing 317]
18 | 0.054 µM | 0.992 µM | 0.268 µM | 0.473 µM | 0.052 µM | 0.403 µM | 0.158 µM | 0.125 µM | CC(C)(C)S(=O)(=O)Nc1cccc(-n2ccc3cnc(Nc4ccc(C(=O)N5CCNCC5)c(F)c4)nc32)c1 [drawing 462]
19 | 0.054 µM | 0.587 µM | 0.194 µM | 0.369 µM | 0.028 µM | 0.334 µM | 0.123 µM | 0.082 µM | CC(C)(C)S(=O)(=O)Nc1cccc(-n2ccc3cnc(Nc4ccc(C(=O)N5CCNCC5)c(F)c4)nc32)c1 [drawing 463]
20 | 0.029 µM | 1.1 µM | 0.189 µM | 0.318 µM | 0.02 µM | 0.292 µM | 0.117 µM | 0.246 µM | CN(C)C1CCN(C(=O)c2ccc(Nc3ncc4ccn(-c5cccc(NS(=O)(=O)C(C)(C)C)c5)c4n3)cc2F)CC1
